Read-outs that look alike come from different tables or passages of the source.
Tests used:
[1] = Safety assessment (adverse events, physical examination, vital signs) after liraglutide; type: in vivo, human; conditions: off-hemodialysis (day 2) or on-hemodialysis (day 3); 0.6 or 0.9 mg s.c.; 10 patients
Protocol: The severity and causal relationship to liraglutide of all treatment-related adverse events in these patients were assessed by the investigators. A physical examination, including vital signs (blood pressure and heart rate) and clinical laboratory biochemical tests, was also performed on each patient.

plasma glucose = conditions: CGM, mean ± SD, n = 10
Protocol: CGM was performed both off-hemodialysis (day 2) and on-hemodialysis (day 3).
The mean, maximum, and minimum glucose concentrations; SD; and MAGE were analyzed using a paired t-test and 95% confidence interval (CI) for the mean ratio (on-hemodialysis/off-hemodialysis). Because these values could be logarithmically transformed, the transformed data were used for analyses. […] In these cases, the original non-transformed values were analyzed by paired t-test. […] Values of p<0.05 were considered significant.

[2] = tested on: albumin and α-acidic glycoprotein; conditions: plasma protein binding; cited from earlier work
Text: Insulin treatment remains the main therapy for the control of hyperglycemia in diabetic patients with ESRD requiring hemodialysis, but it sometimes induces severe hypoglycemia.

[3] = design: method as in PMID 23445717; conditions: cited from earlier work
[4] = cited from earlier work; for Liraglutide AUC lower than in healthy subjects, on average: single dose, ref 1 (Jacobsen et al., 2009) of supplement
[5] = design: method as in earlier work; conditions: ref 2 (Ishida et al., 2011) of supplement, cited from earlier work
[6] = human, in vivo; cited from earlier work

CCCCCCCCCCCCCCCC(=O)N[C@@H](CCC(=O)NCCCC[C@H](NC(=O)[C@H](C)NC(=O)[C@H](C)NC(=O)[C@H](CCC(N)=O)NC(=O)CNC(=O)[C@H](CCC(=O)O)NC(=O)[C@H](CC(C)C)NC(=O)[C@H](Cc1ccc(O)cc1)NC(=O)[C@H](CO)NC(=O)[C@H](CO)NC(=O)[C@@H](NC(=O)[C@H](CC(=O)O)NC(=O)[C@H](CO)NC(=O)[C@@H](NC(=O)[C@H](Cc1ccccc1)NC(=O)[C@@H](NC(=O)CNC(=O)[C@H](CCC(=O)O)NC(=O)[C@H](C)NC(=O)[C@@H](N)Cc1cnc[nH]1)[C@@H](C)O)[C@@H](C)O)C(C)C)C(=O)N[C@@H](CCC(=O)O)C(=O)N[C@@H](Cc1ccccc1)C(=O)N[C@H](C(=O)N[C@@H](C)C(=O)N[C@@H](Cc1c[nH]c2ccccc12)C(=O)N[C@@H](CC(C)C)C(=O)N[C@H](C(=O)N[C@@H](CCCNC(=N)N)C(=O)NCC(=O)N[C@@H](CCCNC(=N)N)C(=O)NCC(=O)O)C(C)C)[C@@H](C)CC)C(=O)O [liraglutide]
Adverse events, including signs of hypoglycemia [1]: No adverse events
AUC during 24 hr in hyperglycemia (>180 mg/dL) (plasma glucose; off-hemodialysis (day 2)): 7746.0 ± 17246.4 mg·min/dL
MAGE (mean amplitude of glycemic excursions) (plasma glucose; off-hemodialysis (day 2)): 55.6 ± 27.4 mg/dL
Minimum glucose level (plasma glucose; off-hemodialysis (day 2)): 92.7 ± 27.1 mg/dL
Time during 24 hr in hyperglycemia (>180 mg/dL) (plasma glucose; off-hemodialysis (day 2)): 214.5 ± 388.4 min
AUC during 24 hr in hyperglycemia (>180 mg/dL) (plasma glucose; on-hemodialysis (day 3)): 11427.5 ± 19184.4 mg·min/dL
MAGE (mean amplitude of glycemic excursions) (plasma glucose; on-hemodialysis (day 3)): 90.0 ± 65.7 mg/dL
Minimum glucose level (plasma glucose; on-hemodialysis (day 3)): 88.4 ± 21.4 mg/dL
Time during 24 hr in hyperglycemia (>180 mg/dL) (plasma glucose; on-hemodialysis (day 3)): 210.0 ± 282.9 min
Liraglutide binding to albumin and α-acidic glycoprotein [2]: approximately 99%
Adverse events ([3]; 0.3 mg/day, nine diabetic Japanese patients with ESRD): no adverse events
Mean period of hypoglycemia after liraglutide administration ([3]; 0.3 mg, diabetic patients with ESRD undergoing hemodialysis): approximately 50 min/day
Liraglutide AUC lower than in healthy subjects, on average ([4]; end-stage renal disease): 26%
Liraglutide AUC lower than in healthy subjects, on average ([4]; mild renal impairment): 33%
Liraglutide AUC lower than in healthy subjects, on average ([4]; moderate renal impairment): 14%
Liraglutide AUC lower than in healthy subjects, on average ([4]; severe renal impairment): 27%
Adverse events ([4]; single injection 0.75 mg, non-diabetic Caucasian patients with varying degrees of renal impairment): 2 events of vomiting and 1 event of nausea
Patients withdrawn from liraglutide treatment due to nausea ([5]; 19 patients switched from insulin): Two patients
Hypoglycemia symptoms after the switch to liraglutide ([5]; 30% of the subjects complained before the switch): not observed
Glycosylated haemoglobin 1c (HbA1c) after one month of liraglutide ([5]; from 5.3±0.5 before the switch from insulin, p= 0.07, 19 patients): 5.1±0.5
Glycoalbumin (GA) after one-month treatment of liraglutide ([5]; from 21.0±2.2 before the switch from insulin, p= 0.02, 19 patients): 19.4±2.4%

exenatide
AUC0–∞ in non-diabetic patients with ESRD relative to healthy controls [6]: 3.37 times
Cmax in non-diabetic patients with ESRD relative to healthy controls [6]: 1.38 times

Reference: paper PMC4272272 (PLoS ONE, 2014)
